Experimental data reported in US20170252298A1, “Performance-Enhancing Nasal Irrigation” (Backed-by-Science, Inc., priority 2014, published 2017).
Several values for one entry are separate records, joined by “and”; a condition that tells them apart may be missing. Equal values may be shown once.

Tested on: nasal cilia
Test: nasal ciliary beat frequency (CBF), whole field analysis over time
Format: cell-based
Set-up: Mean CBF (WFA): unit: Hz
Method: The ATP concentration inside the cell is typically 1-10 millimolar (mM). We started with an ATP concentration of 1 mg/ml based on literature data and from testing done by Dr. James Palmer at University of Pennsylvania on ATP concentration for increasing nasal ciliary beat frequency. […] 1 mg/ml from the below charts=1 mg/ml=1 gram per liter=1/507 g/mol=2 mM. Most intracellular ATP concentrations in animals fall within the range of 0.5-10 mM. [table]

[1] = Plate 1, elapsed 0:00:00, treatment of plate not stated
[2] = Plate 2, elapsed 0:00:00, ATP 1 mg/ml
[3] = Plate 2, elapsed 0:00:10, ATP 1 mg/ml
[4] = Plate 2, elapsed 0:00:30, ATP 1 mg/ml
[5] = Plate 2, elapsed 0:00:40, ATP 1 mg/ml
[6] = Plate 2, elapsed 0:00:50, ATP 1 mg/ml
[7] = Plate 2, elapsed 0:01:00, ATP 1 mg/ml
[8] = Plate 2, elapsed 0:01:10, ATP 1 mg/ml
[9] = Plate 2, elapsed 0:01:20, ATP 1 mg/ml
[10] = Plate 2, elapsed 0:01:30, ATP 1 mg/ml
[11] = Plate 2, elapsed 0:01:40, ATP 1 mg/ml
[12] = Plate 2, elapsed 0:01:50, ATP 1 mg/ml
[13] = Plate 2, elapsed 0:02:00, ATP 1 mg/ml
[14] = Plate 2, elapsed 0:02:10, ATP 1 mg/ml
[15] = Plate 2, elapsed 0:02:20, ATP 1 mg/ml
[16] = Plate 2, elapsed 0:02:30, ATP 1 mg/ml
[17] = Plate 2, elapsed 0:02:40, ATP 1 mg/ml
[18] = Plate 2, elapsed 0:02:50, ATP 1 mg/ml
[19] = Plate 2, elapsed 0:03:00, ATP 1 mg/ml
[20] = Plate 2, elapsed 0:03:10, ATP 1 mg/ml
[21] = Plate 2, elapsed 0:03:20, ATP 1 mg/ml
[22] = Plate 2, elapsed 0:03:30, ATP 1 mg/ml
[23] = Plate 2, elapsed 0:03:40, ATP 1 mg/ml
[24] = Plate 2, elapsed 0:03:50, ATP 1 mg/ml
[25] = Plate 2, elapsed 0:04:00, ATP 1 mg/ml
[26] = Plate 2, elapsed 0:04:10, ATP 1 mg/ml
[27] = Plate 2, elapsed 0:04:20, ATP 1 mg/ml
[28] = Plate 2, elapsed 0:04:30, ATP 1 mg/ml
[29] = Plate 2, elapsed 0:04:40, ATP 1 mg/ml
[30] = Plate 2, elapsed 0:04:50, ATP 1 mg/ml
[31] = Plate 2, elapsed 0:05:00, ATP 1 mg/ml
[32] = Plate 2, elapsed 0:05:10, ATP 1 mg/ml
[33] = Plate 2, elapsed 0:05:20, ATP 1 mg/ml
[34] = Plate 2, elapsed 0:05:30, ATP 1 mg/ml
[35] = Plate 2, elapsed 0:05:40, ATP 1 mg/ml
[36] = Plate 2, elapsed 0:05:50, ATP 1 mg/ml
[37] = Plate 2, elapsed 0:06:00, ATP 1 mg/ml
[38] = Plate 2, elapsed 0:06:10, ATP 1 mg/ml
[39] = Plate 2, elapsed 0:06:20, ATP 1 mg/ml
[40] = Plate 2, elapsed 0:06:30, ATP 1 mg/ml
[41] = Plate 2, elapsed 0:06:40, ATP 1 mg/ml
[42] = Plate 2, elapsed 0:06:50, ATP 1 mg/ml
[43] = Plate 2, elapsed 0:07:00, ATP 1 mg/ml
[44] = Plate 2, elapsed 0:07:10, ATP 1 mg/ml
[45] = Plate 2, elapsed 0:07:20, ATP 1 mg/ml
[46] = Plate 2, elapsed 0:07:30, ATP 1 mg/ml
[47] = Plate 2, elapsed 0:07:40, ATP 1 mg/ml
[48] = Plate 2, elapsed 0:07:50, ATP 1 mg/ml
[49] = Plate 2, elapsed 0:08:00, ATP 1 mg/ml

**Q.** Which results are given for `Nc1ncnc2c1ncn2[C@@H]1O[C@H](COP(=O)(O)OP(=O)(O)OP(=O)(O)O)[C@@H](O)[C@H]1O` [ATP, adenosine triphosphate]?
**A.** Active Area [1]: 82.86% and 60.42% and 53.54%; Mean CBF (WFA) [1]: 6.75 and 6.14 and 5.59; Active Area [2]: 22.19%; Mean CBF (WFA) [2]: 8.06; Active Area [3]: 44.1%; Mean CBF (WFA) [3]: 7.41; Active Area [4]: 49.49%; Mean CBF (WFA) [4]: 7.42; Active Area [5]: 49.6%; Mean CBF (WFA) [5]: 7.5; Active Area [6]: 48.61%; Mean CBF (WFA) [6]: 7.55; Active Area [7]: 42.47%; Mean CBF (WFA) [7]: 7.66; Active Area [8]: 43.64%; Mean CBF (WFA) [8]: 7.75; Active Area [9]: 45.62%; Mean CBF (WFA) [9]: 7.82; Active Area [10]: 36.91%; Mean CBF (WFA) [10]: 7.92; Active Area [11]: 40.43%; Mean CBF (WFA) [11]: 7.99; Active Area [12]: 43.13%; Mean CBF (WFA) [12]: 7.95; Active Area [13]: 41.96%; Mean CBF (WFA) [13]: 8.01; Active Area [14]: 43.36%; Mean CBF (WFA) [14]: 8; Active Area [15]: 42.03%; Mean CBF (WFA) [15]: 8.03; Active Area [16]: 15.64%; Mean CBF (WFA) [16]: 7.96; Active Area [17]: 37.46%; Mean CBF (WFA) [17]: 8.02; Active Area [18]: 40.07%; Mean CBF (WFA) [18]: 8.02; Active Area [19]: 38.29%; Mean CBF (WFA) [19]: 8.08; Active Area [20]: 38.85%; Mean CBF (WFA) [20]: 8.1; Active Area [21]: 37.75%; Mean CBF (WFA) [21]: 8.09; Active Area [22]: 36.48%; Mean CBF (WFA) [22]: 8.07; Active Area [23]: 37.41%; Mean CBF (WFA) [23]: 8.07; Active Area [24]: 36.73%; Mean CBF (WFA) [24]: 8.12; Active Area [25]: 37.22%; Mean CBF (WFA) [25]: 8.11; Active Area [26]: 38.13%; Mean CBF (WFA) [26]: 8.09; Active Area [27]: 36.96%; Mean CBF (WFA) [27]: 8.12; Active Area [28]: 36.02%; Mean CBF (WFA) [28]: 8.12; Active Area [29]: 36.21%; Mean CBF (WFA) [29]: 8.06; Active Area [30]: 34.77%; Mean CBF (WFA) [30]: 8.05; Active Area [31]: 37.11%; Mean CBF (WFA) [31]: 8.12; Active Area [32]: 34.86%; Mean CBF (WFA) [32]: 8.08; Active Area [33]: 35.53%; Mean CBF (WFA) [33]: 8.09; Active Area [34]: 36.15%; Mean CBF (WFA) [34]: 8.22; Active Area [35]: 38.41%; Mean CBF (WFA) [35]: 8.15; Active Area [36]: 38.05%; Mean CBF (WFA) [36]: 8.13; Active Area [37]: 39.37%; Mean CBF (WFA) [37]: 8.17; Active Area [38]: 39.15%; Mean CBF (WFA) [38]: 8.14; Active Area [39]: 37.86%; Mean CBF (WFA) [39]: 8.15; Active Area [40]: 31.72%; Mean CBF (WFA) [40]: 8.11; Active Area [41]: 35.94%; Mean CBF (WFA) [41]: 8.21; Active Area [42]: 36.95%; Mean CBF (WFA) [42]: 8.22; Active Area [43]: 28.86%; Mean CBF (WFA) [43]: 8.23; Active Area [44]: 36.92%; Mean CBF (WFA) [44]: 8.2; Active Area [45]: 38.3%; Mean CBF (WFA) [45]: 8.24; Active Area [46]: 37.18%; Mean CBF (WFA) [46]: 8.25; Active Area [47]: 36.54%; Mean CBF (WFA) [47]: 8.23; Active Area [48]: 35.67%; Mean CBF (WFA) [48]: 8.22; Active Area [49]: 37.37%; Mean CBF (WFA) [49]: 8.17
